The values below come from the kinase profiling compilation of Christmann-Franck et al. (2016).

BLK (human), sequence (P51451 whole entry, looked up): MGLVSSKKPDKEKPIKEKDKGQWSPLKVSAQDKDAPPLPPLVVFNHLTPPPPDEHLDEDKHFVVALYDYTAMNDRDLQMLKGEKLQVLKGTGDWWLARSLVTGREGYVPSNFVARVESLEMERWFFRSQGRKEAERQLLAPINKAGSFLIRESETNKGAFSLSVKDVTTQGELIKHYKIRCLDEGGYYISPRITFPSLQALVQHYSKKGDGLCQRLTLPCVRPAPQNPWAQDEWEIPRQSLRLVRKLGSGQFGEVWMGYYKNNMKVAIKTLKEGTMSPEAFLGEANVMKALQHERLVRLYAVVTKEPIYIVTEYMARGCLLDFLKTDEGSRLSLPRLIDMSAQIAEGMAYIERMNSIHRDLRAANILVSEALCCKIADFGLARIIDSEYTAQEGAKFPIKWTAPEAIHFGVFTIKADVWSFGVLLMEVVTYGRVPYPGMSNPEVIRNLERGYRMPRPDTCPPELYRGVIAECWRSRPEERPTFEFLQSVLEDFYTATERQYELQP
STK10 (human), sequence (O94804 whole entry, looked up): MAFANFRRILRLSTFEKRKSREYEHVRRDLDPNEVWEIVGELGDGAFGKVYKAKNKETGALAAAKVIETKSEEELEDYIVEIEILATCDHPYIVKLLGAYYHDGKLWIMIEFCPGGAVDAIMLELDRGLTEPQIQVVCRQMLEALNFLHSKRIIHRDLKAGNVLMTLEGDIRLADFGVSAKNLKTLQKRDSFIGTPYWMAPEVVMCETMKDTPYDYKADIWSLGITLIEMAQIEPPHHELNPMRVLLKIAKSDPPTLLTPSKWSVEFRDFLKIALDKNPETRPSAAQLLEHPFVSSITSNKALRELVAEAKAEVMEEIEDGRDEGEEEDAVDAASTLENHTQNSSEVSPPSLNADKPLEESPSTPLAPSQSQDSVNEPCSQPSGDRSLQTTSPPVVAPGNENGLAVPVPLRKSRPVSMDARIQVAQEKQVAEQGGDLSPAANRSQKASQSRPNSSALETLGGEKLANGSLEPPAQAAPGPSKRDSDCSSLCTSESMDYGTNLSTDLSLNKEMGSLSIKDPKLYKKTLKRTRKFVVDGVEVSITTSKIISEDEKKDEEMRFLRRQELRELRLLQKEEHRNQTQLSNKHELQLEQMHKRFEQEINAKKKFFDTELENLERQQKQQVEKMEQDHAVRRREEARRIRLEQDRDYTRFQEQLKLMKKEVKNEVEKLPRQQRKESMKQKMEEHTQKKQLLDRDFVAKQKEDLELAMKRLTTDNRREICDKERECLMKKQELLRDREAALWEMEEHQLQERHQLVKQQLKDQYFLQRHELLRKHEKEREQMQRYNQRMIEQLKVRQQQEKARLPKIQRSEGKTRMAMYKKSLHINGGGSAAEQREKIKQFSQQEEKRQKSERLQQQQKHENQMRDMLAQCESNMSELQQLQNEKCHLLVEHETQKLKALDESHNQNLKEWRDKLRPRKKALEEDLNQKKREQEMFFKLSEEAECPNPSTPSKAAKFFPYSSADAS
PIM2 (human), sequence (Q9P1W9 whole entry, looked up): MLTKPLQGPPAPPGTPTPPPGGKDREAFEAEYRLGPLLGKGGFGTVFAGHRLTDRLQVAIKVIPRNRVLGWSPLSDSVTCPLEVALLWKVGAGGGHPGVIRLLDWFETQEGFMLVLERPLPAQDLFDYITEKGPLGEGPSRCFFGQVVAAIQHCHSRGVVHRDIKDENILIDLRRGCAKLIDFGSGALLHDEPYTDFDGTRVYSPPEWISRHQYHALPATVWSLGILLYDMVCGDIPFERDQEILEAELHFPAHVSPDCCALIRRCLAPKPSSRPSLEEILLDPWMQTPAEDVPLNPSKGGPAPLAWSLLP

The first test has as its target PRKCI (human) (UniProt P41743). The test can be described thus: radiometric filter-binding kinase assay, Kinase HotSpot. Particulars: compound 0.5 µM; ATP 10 µM.
On to `CCN(CC)C(=O)c1ccc(Nc2nc(OCC3CCCCC3)c3nc[nH]c3n2)cc1`, for which the residual activity was 97.2%.
`O=C(Nc1cccc(Nc2nccc(Nc3cccc(C(F)(F)F)c3)n2)c1)C1CC1`: the residual activity came to 91.3%.
The same measure, in the same setting: the same measure for `CCC(=O)Nc1ccc2ncnc(Nc3cccc(Br)c3)c2c1`: 106%.

The next test has as its target BLK (human) (UniProt P51451). Described as above. Particulars: compound 0.5 µM; ATP 10 µM.
Regarding `CCN(CC)C(=O)c1ccc(Nc2nc(OCC3CCCCC3)c3nc[nH]c3n2)cc1`, the residual activity was 60.9%.
For the compound `O=C(Nc1cccc(Nc2nccc(Nc3cccc(C(F)(F)F)c3)n2)c1)C1CC1`, the residual activity came to 99.8%.
On the same count and under the same terms, the same measure for `CCC(=O)Nc1ccc2ncnc(Nc3cccc(Br)c3)c2c1`: 90.7%.

The target of a further test is DYRK4 (human) (UniProt Q9NR20). The description is as above. Particulars: compound 0.5 µM; ATP 10 µM.
`CCN(CC)C(=O)c1ccc(Nc2nc(OCC3CCCCC3)c3nc[nH]c3n2)cc1`: the residual activity came to 93.6%.
For the compound `O=C(Nc1cccc(Nc2nccc(Nc3cccc(C(F)(F)F)c3)n2)c1)C1CC1`, the residual activity came out at 107%.
On to `CCC(=O)Nc1ccc2ncnc(Nc3cccc(Br)c3)c2c1`, for which the residual activity came out at 113%.

A further test deals with RPS6KB1 (human) (UniProt P23443). Described as above. Particulars: compound 0.5 µM; ATP 10 µM.
Regarding `CCN(CC)C(=O)c1ccc(Nc2nc(OCC3CCCCC3)c3nc[nH]c3n2)cc1`, the residual activity was 89.5%.
As to `O=C(Nc1cccc(Nc2nccc(Nc3cccc(C(F)(F)F)c3)n2)c1)C1CC1`, the residual activity was determined as 98%.
The same measure, in the same setting: the same measure for `CCC(=O)Nc1ccc2ncnc(Nc3cccc(Br)c3)c2c1`: 91.2%.

For a further test, the target named is MAP4K4 (human) (UniProt O95819). Described as above. The following applies: compound 0.5 µM; ATP 10 µM.
For `CCN(CC)C(=O)c1ccc(Nc2nc(OCC3CCCCC3)c3nc[nH]c3n2)cc1`, the residual activity is 85.9%.
Still for that read-out and setting: the same measure for `O=C(Nc1cccc(Nc2nccc(Nc3cccc(C(F)(F)F)c3)n2)c1)C1CC1`: 92.4%; for `CCC(=O)Nc1ccc2ncnc(Nc3cccc(Br)c3)c2c1`: 91.1%.

A further test deals with RAF1 (human) (UniProt P04049). Described as above. Particulars: compound 0.5 µM; ATP 10 µM.
RAF1 (human), sequence (P04049 whole entry, looked up): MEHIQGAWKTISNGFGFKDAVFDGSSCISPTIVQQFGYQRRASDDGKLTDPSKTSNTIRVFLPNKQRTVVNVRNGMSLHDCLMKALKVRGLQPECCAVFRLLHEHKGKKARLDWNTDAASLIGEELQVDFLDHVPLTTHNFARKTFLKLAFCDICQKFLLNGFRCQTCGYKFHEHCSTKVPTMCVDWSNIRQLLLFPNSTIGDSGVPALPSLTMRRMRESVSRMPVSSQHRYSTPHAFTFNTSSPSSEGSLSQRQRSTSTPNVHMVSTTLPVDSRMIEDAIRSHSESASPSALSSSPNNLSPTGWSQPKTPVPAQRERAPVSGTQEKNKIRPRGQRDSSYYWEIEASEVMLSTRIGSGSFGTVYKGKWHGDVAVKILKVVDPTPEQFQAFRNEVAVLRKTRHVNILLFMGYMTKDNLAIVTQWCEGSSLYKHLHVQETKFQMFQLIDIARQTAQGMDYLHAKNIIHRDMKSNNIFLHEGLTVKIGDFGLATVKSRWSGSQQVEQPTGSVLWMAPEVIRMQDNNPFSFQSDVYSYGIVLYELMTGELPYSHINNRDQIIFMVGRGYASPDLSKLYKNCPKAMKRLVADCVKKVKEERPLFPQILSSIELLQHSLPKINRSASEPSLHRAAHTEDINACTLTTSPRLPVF
As for `CCN(CC)C(=O)c1ccc(Nc2nc(OCC3CCCCC3)c3nc[nH]c3n2)cc1`, the residual activity was 86.3%.
Same read-out and setting: the same measure for `O=C(Nc1cccc(Nc2nccc(Nc3cccc(C(F)(F)F)c3)n2)c1)C1CC1`: 98.7%; for `CCC(=O)Nc1ccc2ncnc(Nc3cccc(Br)c3)c2c1`: 98.4%.

Another test deals with INSRR (human) (UniProt P14616). The test is described as above. The following applies: compound 0.5 µM; ATP 10 µM.
INSRR (human), sequence (P14616 whole entry, looked up): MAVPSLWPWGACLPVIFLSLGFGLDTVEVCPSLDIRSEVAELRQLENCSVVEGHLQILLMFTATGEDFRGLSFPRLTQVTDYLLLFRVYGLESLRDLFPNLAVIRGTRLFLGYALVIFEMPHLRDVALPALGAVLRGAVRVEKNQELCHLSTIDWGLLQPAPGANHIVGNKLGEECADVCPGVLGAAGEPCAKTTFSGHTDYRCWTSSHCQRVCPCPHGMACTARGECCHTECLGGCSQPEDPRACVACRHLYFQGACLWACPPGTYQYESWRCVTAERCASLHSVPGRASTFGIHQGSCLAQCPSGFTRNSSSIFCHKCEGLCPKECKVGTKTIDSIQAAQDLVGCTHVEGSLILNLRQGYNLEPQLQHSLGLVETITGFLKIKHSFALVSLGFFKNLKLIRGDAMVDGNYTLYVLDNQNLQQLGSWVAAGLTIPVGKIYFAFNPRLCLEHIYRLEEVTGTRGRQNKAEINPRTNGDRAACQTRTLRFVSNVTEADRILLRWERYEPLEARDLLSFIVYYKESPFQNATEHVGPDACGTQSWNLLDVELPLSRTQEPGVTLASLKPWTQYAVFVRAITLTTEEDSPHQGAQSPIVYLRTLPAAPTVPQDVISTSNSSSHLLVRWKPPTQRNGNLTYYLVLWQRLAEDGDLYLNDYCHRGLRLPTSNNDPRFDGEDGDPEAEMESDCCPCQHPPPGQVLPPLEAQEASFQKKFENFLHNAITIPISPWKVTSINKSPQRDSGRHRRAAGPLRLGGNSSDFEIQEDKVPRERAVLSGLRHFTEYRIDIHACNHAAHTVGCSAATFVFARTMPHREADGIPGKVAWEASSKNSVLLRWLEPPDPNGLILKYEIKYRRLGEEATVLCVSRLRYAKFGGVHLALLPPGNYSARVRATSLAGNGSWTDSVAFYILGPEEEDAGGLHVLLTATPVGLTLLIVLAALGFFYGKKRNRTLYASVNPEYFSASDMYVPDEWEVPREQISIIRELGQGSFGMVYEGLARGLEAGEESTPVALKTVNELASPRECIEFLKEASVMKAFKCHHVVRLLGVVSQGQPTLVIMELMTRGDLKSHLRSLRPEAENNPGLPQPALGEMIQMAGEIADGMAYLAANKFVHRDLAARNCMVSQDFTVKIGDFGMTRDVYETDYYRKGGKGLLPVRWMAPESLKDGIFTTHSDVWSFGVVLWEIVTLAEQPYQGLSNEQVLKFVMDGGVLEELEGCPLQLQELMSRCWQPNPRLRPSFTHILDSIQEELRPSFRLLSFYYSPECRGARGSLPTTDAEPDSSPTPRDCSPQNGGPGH
As for `CCN(CC)C(=O)c1ccc(Nc2nc(OCC3CCCCC3)c3nc[nH]c3n2)cc1`, the residual activity is 80.8%.
The same measure, in the same setting: the same measure for `O=C(Nc1cccc(Nc2nccc(Nc3cccc(C(F)(F)F)c3)n2)c1)C1CC1`: 89.9%; for `CCC(=O)Nc1ccc2ncnc(Nc3cccc(Br)c3)c2c1`: 98.4%.

For another test, the target named is RIPK2 (human) (UniProt O43353). The test is described as above. Particulars: compound 0.5 µM; ATP 10 µM.
Regarding `CCN(CC)C(=O)c1ccc(Nc2nc(OCC3CCCCC3)c3nc[nH]c3n2)cc1`, the residual activity was determined as 97.2%.
On the same count and under the same terms, the same measure for `O=C(Nc1cccc(Nc2nccc(Nc3cccc(C(F)(F)F)c3)n2)c1)C1CC1`: 81.6%; for `CCC(=O)Nc1ccc2ncnc(Nc3cccc(Br)c3)c2c1`: 71.4%.

The next test has as its target PLK2 (human) (UniProt Q9NYY3). Described as above. The following applies: compound 0.5 µM; ATP 10 µM.
As to `CCN(CC)C(=O)c1ccc(Nc2nc(OCC3CCCCC3)c3nc[nH]c3n2)cc1`, the residual activity amounted to 98.2%.
In the case of `O=C(Nc1cccc(Nc2nccc(Nc3cccc(C(F)(F)F)c3)n2)c1)C1CC1`, the residual activity stood at 99.5%.
On to `CCC(=O)Nc1ccc2ncnc(Nc3cccc(Br)c3)c2c1`, for which the residual activity came out at 108%.

Another test concerns the target CDK1 CCNB1 (human) (UniProt P06493+P14635). Described as above. Particulars: compound 0.5 µM; ATP 10 µM.
Take `CCN(CC)C(=O)c1ccc(Nc2nc(OCC3CCCCC3)c3nc[nH]c3n2)cc1`: the residual activity stood at 62.4%.
Same read-out and setting: the same measure for `O=C(Nc1cccc(Nc2nccc(Nc3cccc(C(F)(F)F)c3)n2)c1)C1CC1`: 89.3%.
Still for that read-out and setting: the same measure for `CCC(=O)Nc1ccc2ncnc(Nc3cccc(Br)c3)c2c1`: 89.5%.

The target of another test is EPHA1 (human) (UniProt P21709). The test is described as above. The following applies: compound 0.5 µM; ATP 10 µM.
Regarding `CCN(CC)C(=O)c1ccc(Nc2nc(OCC3CCCCC3)c3nc[nH]c3n2)cc1`, the residual activity was found to be 90.2%.
`O=C(Nc1cccc(Nc2nccc(Nc3cccc(C(F)(F)F)c3)n2)c1)C1CC1`: the residual activity came out at 81.8%.
Still for that read-out and setting: the same measure for `CCC(=O)Nc1ccc2ncnc(Nc3cccc(Br)c3)c2c1`: 89.5%.

A further test deals with MAP3K5 (human) (UniProt Q99683). Described as above. Particulars: compound 0.5 µM; ATP 10 µM.
MAP3K5 (human), sequence (Q99683 whole entry, looked up): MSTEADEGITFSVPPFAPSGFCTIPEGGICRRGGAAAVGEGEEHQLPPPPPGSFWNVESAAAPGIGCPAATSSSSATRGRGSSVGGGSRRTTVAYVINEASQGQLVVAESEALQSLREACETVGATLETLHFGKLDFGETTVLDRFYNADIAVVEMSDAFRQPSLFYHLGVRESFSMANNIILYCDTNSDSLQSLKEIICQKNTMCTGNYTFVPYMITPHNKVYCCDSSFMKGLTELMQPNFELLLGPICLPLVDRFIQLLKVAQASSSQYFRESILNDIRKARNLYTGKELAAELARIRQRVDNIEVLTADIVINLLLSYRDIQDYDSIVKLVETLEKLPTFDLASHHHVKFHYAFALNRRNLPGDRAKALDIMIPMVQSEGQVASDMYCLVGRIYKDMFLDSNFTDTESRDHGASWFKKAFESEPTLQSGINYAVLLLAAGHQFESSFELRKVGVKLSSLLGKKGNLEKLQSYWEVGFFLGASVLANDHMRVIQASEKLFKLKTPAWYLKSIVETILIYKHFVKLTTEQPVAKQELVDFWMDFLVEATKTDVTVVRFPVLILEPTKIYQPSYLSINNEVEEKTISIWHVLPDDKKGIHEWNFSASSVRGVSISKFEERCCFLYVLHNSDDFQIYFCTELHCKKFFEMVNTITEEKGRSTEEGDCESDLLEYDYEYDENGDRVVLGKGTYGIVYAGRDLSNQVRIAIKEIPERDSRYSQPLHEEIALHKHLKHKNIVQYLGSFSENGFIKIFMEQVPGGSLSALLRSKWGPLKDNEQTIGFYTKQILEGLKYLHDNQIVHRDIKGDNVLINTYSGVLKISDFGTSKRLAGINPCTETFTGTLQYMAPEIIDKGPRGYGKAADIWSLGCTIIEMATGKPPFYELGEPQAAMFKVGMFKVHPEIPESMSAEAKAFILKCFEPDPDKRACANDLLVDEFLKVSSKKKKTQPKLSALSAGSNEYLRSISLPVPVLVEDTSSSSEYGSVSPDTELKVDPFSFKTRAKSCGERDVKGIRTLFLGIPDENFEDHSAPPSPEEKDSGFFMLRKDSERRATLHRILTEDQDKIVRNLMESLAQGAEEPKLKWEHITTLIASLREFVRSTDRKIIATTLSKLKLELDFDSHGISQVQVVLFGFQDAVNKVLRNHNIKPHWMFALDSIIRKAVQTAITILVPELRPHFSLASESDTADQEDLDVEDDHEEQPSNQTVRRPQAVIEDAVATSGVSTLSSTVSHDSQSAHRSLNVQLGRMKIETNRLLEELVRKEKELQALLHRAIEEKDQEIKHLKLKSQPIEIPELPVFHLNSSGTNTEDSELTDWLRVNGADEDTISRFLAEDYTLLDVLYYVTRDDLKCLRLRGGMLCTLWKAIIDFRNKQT
Consider `CCN(CC)C(=O)c1ccc(Nc2nc(OCC3CCCCC3)c3nc[nH]c3n2)cc1`, for which the residual activity is 96.9%.
Consider `O=C(Nc1cccc(Nc2nccc(Nc3cccc(C(F)(F)F)c3)n2)c1)C1CC1`, for which the residual activity was 111%.
Regarding `CCC(=O)Nc1ccc2ncnc(Nc3cccc(Br)c3)c2c1`, the residual activity was 102%.

The target in the next test is LTK (human) (UniProt P29376). Described as above. The following applies: compound 0.5 µM; ATP 10 µM.
With `CCN(CC)C(=O)c1ccc(Nc2nc(OCC3CCCCC3)c3nc[nH]c3n2)cc1`, the residual activity came out at 66.1%.
On the same count and under the same terms, the same measure for `O=C(Nc1cccc(Nc2nccc(Nc3cccc(C(F)(F)F)c3)n2)c1)C1CC1`: 104%; for `CCC(=O)Nc1ccc2ncnc(Nc3cccc(Br)c3)c2c1`: 81%.

The next test concerns the target STK10 (human) (UniProt O94804). The test is described as above. The following applies: compound 0.5 µM; ATP 10 µM.
Turning to `CCN(CC)C(=O)c1ccc(Nc2nc(OCC3CCCCC3)c3nc[nH]c3n2)cc1`, the residual activity was found to be 57.3%.
The same measure, in the same setting: the same measure for `O=C(Nc1cccc(Nc2nccc(Nc3cccc(C(F)(F)F)c3)n2)c1)C1CC1`: 90.1%; for `CCC(=O)Nc1ccc2ncnc(Nc3cccc(Br)c3)c2c1`: 68.7%.

The target of the next test is CSNK1G3 (human) (UniProt Q9Y6M4). Described as above. The following applies: compound 0.5 µM; ATP 10 µM.
In the case of `CCN(CC)C(=O)c1ccc(Nc2nc(OCC3CCCCC3)c3nc[nH]c3n2)cc1`, the residual activity was found to be 61.7%.
Still for that read-out and setting: the same measure for `O=C(Nc1cccc(Nc2nccc(Nc3cccc(C(F)(F)F)c3)n2)c1)C1CC1`: 93.5%.
Same read-out and setting: the same measure for `CCC(=O)Nc1ccc2ncnc(Nc3cccc(Br)c3)c2c1`: 91.6%.

The next test deals with KDR (human) (UniProt P35968). Described as above. The following applies: compound 0.5 µM; ATP 10 µM.
For `CCN(CC)C(=O)c1ccc(Nc2nc(OCC3CCCCC3)c3nc[nH]c3n2)cc1`, the residual activity amounted to 76.5%.
As for `O=C(Nc1cccc(Nc2nccc(Nc3cccc(C(F)(F)F)c3)n2)c1)C1CC1`, the residual activity came out at 91.6%.
As to `CCC(=O)Nc1ccc2ncnc(Nc3cccc(Br)c3)c2c1`, the residual activity was 96.5%.

The next test concerns the target FLT1 (human) (UniProt P17948). The test is described as above. Particulars: compound 0.5 µM; ATP 10 µM.
Take `CCN(CC)C(=O)c1ccc(Nc2nc(OCC3CCCCC3)c3nc[nH]c3n2)cc1`: the residual activity was found to be 84%.
Still for that read-out and setting: the same measure for `O=C(Nc1cccc(Nc2nccc(Nc3cccc(C(F)(F)F)c3)n2)c1)C1CC1`: 97%; for `CCC(=O)Nc1ccc2ncnc(Nc3cccc(Br)c3)c2c1`: 86.9%.

The target in the next test is CDK3 CCNE1 (human) (UniProt Q00526+P24864). The description is as above. The following applies: compound 0.5 µM; ATP 10 µM.
Take `CCN(CC)C(=O)c1ccc(Nc2nc(OCC3CCCCC3)c3nc[nH]c3n2)cc1`: the residual activity is 90.4%.
Turning to `O=C(Nc1cccc(Nc2nccc(Nc3cccc(C(F)(F)F)c3)n2)c1)C1CC1`, the residual activity turned out to be 98.1%.
Take `CCC(=O)Nc1ccc2ncnc(Nc3cccc(Br)c3)c2c1`: the residual activity stood at 86.5%.

Another test addresses PIM2 (human) (UniProt Q9P1W9). The description is as above. Particulars: compound 0.5 µM; ATP 10 µM.
In the case of `CCN(CC)C(=O)c1ccc(Nc2nc(OCC3CCCCC3)c3nc[nH]c3n2)cc1`, the residual activity is 105%.
As for `O=C(Nc1cccc(Nc2nccc(Nc3cccc(C(F)(F)F)c3)n2)c1)C1CC1`, the residual activity is 112%.
Still for that read-out and setting: the same measure for `CCC(=O)Nc1ccc2ncnc(Nc3cccc(Br)c3)c2c1`: 90.3%.

A further test has as its target MST4 (human) (UniProt Q9P289). Described as above. The following applies: compound 0.5 µM; ATP 10 µM.
Regarding `CCN(CC)C(=O)c1ccc(Nc2nc(OCC3CCCCC3)c3nc[nH]c3n2)cc1`, the residual activity was found to be 84.9%.
Turning to `O=C(Nc1cccc(Nc2nccc(Nc3cccc(C(F)(F)F)c3)n2)c1)C1CC1`, the residual activity was found to be 84.4%.
Take `CCC(=O)Nc1ccc2ncnc(Nc3cccc(Br)c3)c2c1`: the residual activity is 97.6%.

The next test deals with TSSK1B (human) (UniProt Q9BXA7). The test is described as above. The following applies: compound 0.5 µM; ATP 10 µM.
`CCN(CC)C(=O)c1ccc(Nc2nc(OCC3CCCCC3)c3nc[nH]c3n2)cc1`: the residual activity was 15.3%.
The same measure, in the same setting: the same measure for `O=C(Nc1cccc(Nc2nccc(Nc3cccc(C(F)(F)F)c3)n2)c1)C1CC1`: 100%; for `CCC(=O)Nc1ccc2ncnc(Nc3cccc(Br)c3)c2c1`: 73.2%.
